The target in test [1] is T1, Neuropeptide Y receptor type 2 (Homo sapiens, UniProt P49146).
T1 sequence (P49146 whole entry): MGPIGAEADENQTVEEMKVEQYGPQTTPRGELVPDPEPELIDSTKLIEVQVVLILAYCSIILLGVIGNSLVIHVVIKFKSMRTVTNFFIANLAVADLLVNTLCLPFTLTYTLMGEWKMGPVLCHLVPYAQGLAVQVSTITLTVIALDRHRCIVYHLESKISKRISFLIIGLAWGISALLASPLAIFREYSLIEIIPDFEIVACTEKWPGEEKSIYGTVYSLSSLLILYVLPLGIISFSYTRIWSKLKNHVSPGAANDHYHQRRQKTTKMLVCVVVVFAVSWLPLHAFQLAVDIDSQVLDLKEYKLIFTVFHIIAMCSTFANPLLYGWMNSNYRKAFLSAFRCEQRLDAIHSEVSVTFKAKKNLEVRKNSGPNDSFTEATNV
Description: Displacement of [125I]-PYY from human neuropeptide Y2 receptor expressed in CHO cell membranes incubated for 60 mins by TopCount based method.

For test [2], the target named is T1, Neuropeptide Y receptor type 2. Description: Agonist activity at human neuropeptide Y2 receptor expressed in CHO cell membranes assessed as stimulation of [35S]GTPgammaS binding incubated for 120 mins by liquid scintillation counting method. Type of test: functional. On the technique in general: GTPγS is a poorly hydrolysed GTP analogue; its binding reports G protein activation.

Test [3] has as its system Mus musculus. The test is described as follows: Anorectic activity in C57BL/6J mouse assessed as inhibition of food intake at 0.03 mg/kg/day, sc for 3 days dosed as continuous administration by infusion using osmotic pump. Type of test: functional. The note with it: 72 h.
In test [4] the test system is Mus musculus. Description: Anorectic activity in C57BL/6J mouse assessed as inhibition of food intake at 0.3 mg/kg/day, sc dosed as […] and measured after 12 hrs. Type of test: functional.
Test [5] concerns Mus musculus. Description: Anorectic activity in C57BL/6J mouse assessed as inhibition of food intake at 0.3 mg/kg/day, sc dosed as […] and measured after 24 hrs. The class given is functional.
Test [6] concerns Mus musculus. Description: Anorectic activity in C57BL/6J mouse assessed as inhibition of food intake at 0.1 mg/kg/day, sc for 3 days dosed as continuous administration by infusion using osmotic pump. Type of test: functional. The note with it: 72 h.

One may read the IC50 as the concentration that inhibits the measured activity by half. One may read the EC50 as the midpoint of the concentration-response curve. The term inhibition in vivo denotes the drop in the measured response relative to a control, in per cent. `CC[C@](C)(NC(=O)[C@H]1CCCN1C(=O)[C@H](CO)NC(C)=O)C(=O)N[C@@H](Cc1ccncc1)C(=O)N[C@@H](CC1CCCCC1)C(=O)N[C@@H](CC(C)(C)C)C(=O)N[C@@H](CC(N)=O)C(=O)N[C@@H](CCCCN)C(=O)NC(C)(C)C(=O)N[C@H](C(=O)N[C@@H](CCCNC(=N)N)C(=O)N[C@@H](CCC(N)=O)C(=O)N[C@@H](CCCNC(=N)N)C(=O)N[C@@H](CC1CCCCC1)C(N)=O)[C@@H](C)O` returned an IC50 in test [1] of 0.4 nM. The concentration for a half-maximal effect (EC50) in test [2] was 0.2 nM. For the same compound, in the test on Mus musculus [3], the inhibition in vivo at 0.03 mg/kg/day was determined as 52%. The inhibition in vivo at 0.3 mg/kg/day in the test with Mus musculus [4] turned out to be 12%; in the test on Mus musculus [5] it was 1%.
`CC[C@](C)(NC(=O)[C@H](CC1CCCCC1)NC(=O)[C@H](Cc1cnc[nH]1)NC(=O)[C@H](CCCNC(=N)N)NC(=O)[C@H]1CCCN1C(=O)[C@H](CO)NC(C)=O)C(=O)N[C@@H](CC(N)=O)C(=O)N[C@@H](CC(C)C)C(=O)NC(C)(C)C(=O)N[C@H](C(=O)N[C@@H](CCCNC(=N)N)C(=O)N[C@@H](CCC(N)=O)C(=O)N[C@@H](CCCNC(=N)N)C(=O)N[C@@H](CC1CCCCC1)C(N)=O)[C@@H](C)O` yielded an IC50 in test [1] of 0.45 nM. In test [2], the EC50 was 0.18 nM.
In the same order, the values of `CC[C@@](C)(NC(=O)[C@H](CC1CCCCC1)NC(=O)[C@H](Cc1cnc[nH]1)NC(=O)[C@H](CCCNC(=N)N)NC(=O)[C@H]1CCCN1C(=O)[C@H](CO)NC(C)=O)C(=O)N[C@@H](CC(N)=O)C(=O)N[C@@H](CC(C)C)C(=O)NC(C)(C)C(=O)N[C@H](C(=O)N[C@@H](CCCNC(=N)N)C(=O)N[C@@H](CCC(N)=O)C(=O)N[C@@H](CCCNC(=N)N)C(=O)N[C@@H](CC1CCCCC1)C(N)=O)[C@@H](C)O` are 3.3 nM and 0.5 nM.
The compound `CC[C@](C)(NC(=O)[C@H](CC(C)C)NC(=O)[C@H](CC(N)=O)NC(=O)[C@H](CC1CCCCC1)NC(=O)[C@H](CC1CCCCC1)NC(=O)[C@H](Cc1cnc[nH]1)NC(=O)[C@H](CCCNC(=N)N)NC(=O)[C@H]1CCCN1C(=O)[C@H](CO)NC(C)=O)C(=O)N[C@H](C(=O)N[C@@H](CCCNC(=N)N)C(=O)N[C@@H](CCC(N)=O)C(=O)N[C@@H](CCCNC(=N)N)C(=O)N[C@@H](CC1CCCCC1)C(N)=O)[C@@H](C)O` came in with an IC50 in test [1] of 3.7 nM. The concentration for a half-maximal effect (EC50) in test [2] turned out to be 0.41 nM.
In the same order, the values of `CC[C@](C)(NC(=O)[C@H](CO)NC(C)=O)C(=O)N[C@@H](CCCNC(=N)N)C(=O)N[C@@H](Cc1cnc[nH]1)C(=O)N[C@@H](CC1CCCCC1)C(=O)N[C@@H](CC1CCCCC1)C(=O)N[C@@H](CC(N)=O)C(=O)N[C@@H](CC(C)C)C(=O)NC(C)(C)C(=O)N[C@H](C(=O)N[C@@H](CCCNC(=N)N)C(=O)N[C@@H](CCC(N)=O)C(=O)N[C@@H](CCCNC(=N)N)C(=O)N[C@@H](CC1CCCCC1)C(N)=O)[C@@H](C)O` are 1.8 nM and 0.35 nM.
In test [1], `CC[C@](C)(NC(=O)[C@H](CC1CCCCC1)NC(=O)[C@H](Cc1ccncc1)NC(=O)[C@](C)(CC)NC(=O)[C@H]1CCCN1C(=O)[C@H](CO)NC(C)=O)C(=O)N[C@@H](CC(N)=O)C(=O)N[C@@H](CCCCN)C(=O)NC(C)(C)C(=O)N[C@H](C(=O)N[C@@H](CCCNC(=N)N)C(=O)N[C@@H](CCC(N)=O)C(=O)N[C@@H](CCCNC(=N)N)C(=O)N[C@@H](CC1CCCCC1)C(N)=O)[C@@H](C)O` registered an IC50 of 0.57 nM. The EC50 in test [2] was 0.16 nM. In addition, the inhibition in vivo at 0.03 mg/kg/day in the test on Mus musculus [3] was found to be 36%. For the same compound, the inhibition in vivo at 0.3 mg/kg/day with Mus musculus [4] turned out to be 23%; with Mus musculus [5], 16%.
`CC(C)C[C@H](NC(=O)[C@H](CC(N)=O)NC(=O)[C@H](CC1CCCCC1)NC(=O)[C@H](CC1CCCCC1)NC(=O)[C@H](Cc1cnc[nH]1)NC(=O)[C@H](CCCNC(=N)N)NC(=O)[C@H]1CCCN1C(=O)[C@H](CO)NC(=O)c1c[nH]cn1)C(=O)NC(C)(C)C(=O)N[C@H](C(=O)N[C@@H](CCCNC(=N)N)C(=O)N[C@@H](CCC(N)=O)C(=O)N[C@@H](CCCNC(=N)N)C(=O)N[C@@H](CC1CCCCC1)C(N)=O)[C@@H](C)O` returned an IC50 in test [1] of 0.51 nM. Besides, the EC50 in test [2] is 0.18 nM.
Take `CC[C@](C)(NC(=O)[C@H](CC1CCCCC1)NC(=O)[C@H](Cc1ccncc1)NC(=O)[C@](C)(CC)NC(=O)[C@H]1C[C@H](O)CN1C(=O)[C@H](CO)NC(=O)c1c[nH]cn1)C(=O)N[C@@H](CC(N)=O)C(=O)N[C@@H](CCCCN)C(=O)NC(C)(C)C(=O)N[C@H](C(=O)N[C@@H](CCCNC(=N)N)C(=O)N[C@@H](CCC(N)=O)C(=O)N[C@@H](CCCNC(=N)N)C(=O)N[C@@H](CC1CCCCC1)C(N)=O)[C@@H](C)O`: in test [1], the 50% inhibitory concentration (IC50) is 0.44 nM. Besides, the EC50 in test [2] stood at 0.13 nM. Further, the inhibition in vivo at 0.03 mg/kg/day in the test with Mus musculus [3] stood at 49%.
Regarding `CC(C)C[C@H](NC(=O)[C@H](CC(N)=O)NC(=O)[C@H](CC1CCCCC1)NC(=O)[C@H](CC1CCCCC1)NC(=O)[C@H](Cc1cnc[nH]1)NC(=O)[C@H](CCCNC(=N)N)NC(=O)[C@H]1CCCN1C(=O)[C@H](CO)NC(=O)CO)C(=O)NC(C)(C)C(=O)N[C@H](C(=O)N[C@@H](CCCNC(=N)N)C(=O)N[C@@H](CCC(N)=O)C(=O)N[C@@H](CCCNC(=N)N)C(=O)N[C@@H](CC1CCCCC1)C(N)=O)[C@@H](C)O`, the IC50 in test [1] is 1.2 nM. The EC50 in test [2] was determined as 0.59 nM.
`CC(=O)N[C@@H](CO)C(=O)N1CCC[C@@H]1C(=O)NC(C)(C)C(=O)N[C@@H](Cc1ccncc1)C(=O)N[C@@H](CC1CCCCC1)C(=O)NC(C)(C)C(=O)N[C@@H](CC(N)=O)C(=O)N[C@@H](CCCCN)C(=O)NC(C)(C)C(=O)N[C@H](C(=O)N[C@@H](CCCNC(=N)N)C(=O)N[C@@H](CCC(N)=O)C(=O)N[C@@H](CCCNC(=N)N)C(=O)N[C@@H](CC1CCCCC1)C(N)=O)[C@@H](C)O` showed an IC50 in test [1] of 4.5 nM. In test [2], the EC50 is 0.21 nM. In addition, the inhibition in vivo at 0.1 mg/kg/day in the test on Mus musculus [6] turned out to be 50%.
As to `CC[C@](C)(NC(=O)[C@H]1C[C@H](O)CN1C(=O)[C@H](CO)NC(C)=O)C(=O)N[C@@H](Cc1ccncc1)C(=O)N[C@@H](CC1CCCCC1)C(=O)N[C@@H](CC(C)(C)C)C(=O)N[C@@H](CC(N)=O)C(=O)N[C@@H](CCCCN)C(=O)NC(C)(C)C(=O)N[C@H](C(=O)N[C@@H](CCCNC(=N)N)C(=O)N[C@@H](CCC(N)=O)C(=O)N[C@@H](CCCNC(=N)N)C(=O)N[C@@H](CC1CCCCC1)C(N)=O)[C@@H](C)O`, the IC50 in test [1] worked out at 0.58 nM. Also, the EC50 in test [2] stood at 0.13 nM. Further, in the test on Mus musculus [3], the inhibition in vivo at 0.03 mg/kg/day was 27%. Besides, the inhibition in vivo at 0.3 mg/kg/day in the test with Mus musculus [4] is 4%; with Mus musculus [5], 8%.
Consider `CC[C@@](C)(NC(=O)[C@H](CC(C)C)NC(=O)[C@H](CC(N)=O)NC(=O)[C@H](CC1CCCCC1)NC(=O)[C@H](CC1CCCCC1)NC(=O)[C@H](Cc1cnc[nH]1)NC(=O)[C@H](CCCNC(=N)N)NC(=O)[C@H]1CCCN1C(=O)[C@H](CO)NC(C)=O)C(=O)N[C@H](C(=O)N[C@@H](CCCNC(=N)N)C(=O)N[C@@H](CCC(N)=O)C(=O)N[C@@H](CCCNC(=N)N)C(=O)N[C@@H](CC1CCCCC1)C(N)=O)[C@@H](C)O`, for which the IC50 in test [1] was determined as 0.67 nM. Besides, the EC50 in test [2] worked out at 0.17 nM.
On to `CC[C@](C)(NC(=O)[C@H]1C[C@H](O)CN1C(=O)[C@H](CO)NC(=O)c1c[nH]cn1)C(=O)N[C@@H](Cc1ccncc1)C(=O)N[C@@H](CC1CCCCC1)C(=O)NC(C)(C)C(=O)N[C@@H](CC(N)=O)C(=O)N[C@@H](CCCCN)C(=O)NC(C)(C)C(=O)N[C@H](C(=O)N[C@@H](CCCNC(=N)N)C(=O)N[C@@H](CCC(N)=O)C(=O)N[C@@H](CCCNC(=N)N)C(=O)N[C@@H](CC1CCCCC1)C(N)=O)[C@@H](C)O`, for which the IC50 in test [1] amounted to 0.91 nM. In addition, the EC50 in test [2] was 0.17 nM.
Consider `CC[C@@](C)(NC(=O)[C@H](CO)NC(C)=O)C(=O)N[C@@H](CCCNC(=N)N)C(=O)N[C@@H](Cc1cnc[nH]1)C(=O)N[C@@H](CC1CCCCC1)C(=O)N[C@@H](CC1CCCCC1)C(=O)N[C@@H](CC(N)=O)C(=O)N[C@@H](CC(C)C)C(=O)NC(C)(C)C(=O)N[C@H](C(=O)N[C@@H](CCCNC(=N)N)C(=O)N[C@@H](CCC(N)=O)C(=O)N[C@@H](CCCNC(=N)N)C(=O)N[C@@H](CC1CCCCC1)C(N)=O)[C@@H](C)O`, for which the IC50 in test [1] was found to be 2.4 nM. For the same compound, the EC50 in test [2] stood at 0.28 nM.
On to `CC[C@](C)(NC(=O)[C@H]1C[C@H](O)CN1C(=O)[C@H](CO)NC(C)=O)C(=O)N[C@@H](Cc1ccncc1)C(=O)N[C@@H](CC1CCCCC1)C(=O)NC(C)(C)C(=O)N[C@@H](CC(N)=O)C(=O)N[C@@H](CCCCN)C(=O)NC(C)(C)C(=O)N[C@H](C(=O)N[C@@H](CCCNC(=N)N)C(=O)N[C@@H](CCC(N)=O)C(=O)N[C@@H](CCCNC(=N)N)C(=O)N[C@@H](CC1CCCCC1)C(N)=O)[C@@H](C)O`, for which the IC50 in test [1] was determined as 0.78 nM. The EC50 in test [2] is 0.21 nM. Moreover, the inhibition in vivo at 0.03 mg/kg/day in the test with Mus musculus [3] is 45%.

Values taken from ChEMBL document CHEMBL4177573 (Bioorg Med Chem, 2017).
